Test results as given in patent publication US11633459B2, “GIP derivatives and uses thereof” (priority 2018, dated 2023).
*1 amine or outer side, *2 acyl side, *3 side chain or, on linkers, in order; H or OH if unused. Where a SMILES comes first, the peptide text is derived from it. Side-chain parts run from the residue outwards. [ ]: non-standard residue; d: D form. The star is where a group is joined. X1 = O=C(O)CCCCCCCCCCCCCCCCCCC(=O)NCC1CCC(C(=O)*)CC1; γGlu = O=C(O)[C@H](CCC(=O)[*:2])N[*:1]; Nle = CCCC[C@H](N)C(=O)O; Aib = CC(C)(N)C(=O)O

Experiment: Pharmacokinetic study in minipigs, terminal half-life after i.v. administration
Settings: female, Göttingen, minipig, plasma, iv, 5 nmol/kg
Protocol: Pharmacokinetic Study in Minipigs
The purpose of this study is to determine the half-life in vivo of the derivatives of the present invention after i.v. administration to minipigs, i.e. the prolongation of their time in the body and thereby their time of action. This is done in a pharmacokinetic (PK) study, where the terminal half-life of the derivative in question is determined. By terminal half-life is generally meant the period of time it takes to halve a certain plasma concentration, measured after the initial distribution phase.
Female Göttingen minipigs were obtained from Ellegaard Göttingen Minipigs (Dalmose, Denmark) approximately 7-14 months of age and weighing from approximately 16-35 kg were used in the studies. The minipigs were housed individually and fed restrictedly once daily with SDS minipig diet (Special Diets Services, Essex, UK).
After at 3 weeks of acclimatisation two permanent central venous catheters were implanted in vena cava caudalis in each animal. The animals were allowed 1 week recovery after the surgery, and were then used for repeated pharmacokinetic studies with a suitable wash-out period between successive derivative dosing.
Blood samples (for example 0.8 ml) were collected in EDTA buffer (8 mM) and then centrifuged at 4° C. and 1942G for 10 minutes.
Individual plasma concentration-time profiles were analysed by a non-compartmental model in Phoenix WinNonLin ver. […] (Pharsight Inc., Mountain View, Calif., USA), and the resulting terminal half-lives (harmonic mean) determined.

| Compound | half-life [h] |
| --- | --- |
| CCCC[C@H](NC(=O)[C@H](C)NC(=O)[C@@H](NC(=O)[C@H](CO)NC(=O)[C@H](Cc1ccc(O)cc1)NC(=O)[C@H](CC(=O)O)NC(=O)[C@H](CO)NC(=O)[C@@H](NC(=O)[C@H](Cc1ccccc1)NC(=O)[C@@H](NC(=O)CNC(=O)[C@H](CCC(=O)O)NC(=O)C(C)(C)NC(=O)[C@@H](N)Cc1ccc(O)cc1)[C@@H](C)O)[C@@H](C)CC)[C@@H](C)CC)C(=O)N[C@@H](CC(=O)O)C(=O)N[C@@H](CCCCN)C(=O)N[C@H](C(=O)N[C@@H](Cc1c[nH]cn1)C(=O)N[C@@H](CCC(N)=O)C(=O)N[C@@H](CCC(N)=O)C(=O)N[C@@H](CC(=O)O)C(=O)N[C@@H](Cc1ccccc1)C(=O)N[C@H](C(=O)N[C@@H](CCCCNC(=O)CC[C@H](NC(=O)CC[C@H](NC(=O)CC[C@H](NC(=O)C1CCC(CNC(=O)CCCCCCCCCCCCCCCCCCC(=O)O)CC1)C(=O)O)C(=O)O)C(=O)O)C(=O)N[C@@H](Cc1c[nH]c2ccccc12)C(=O)N[C@@H](CC(C)C)C(=O)N[C@@H](CC(C)C)C(=O)N[C@@H](C)C(=O)N[C@@H](CCC(N)=O)C(=O)N[C@@H](CCCCN)C(=O)N1CCC[C@H]1C(N)=O)C(C)C)[C@@H](C)CC (stereo partly drawn) [Compound 27, N{Epsilon-24}-[(4S)-4-carboxy-4-[[(4S)-4-carboxy-4-[[(4S)-4-carboxy-4-[[4-[(19-carboxynonadecanoylamino)methyl]cyclohexanecarbonyl]amino]butanoyl]amino]-butanoyl]amino]butanoyl]-[Aib2,Nle14,Lys24,Pro31]-hGIP(1-31) amide] (H-Y[Aib]EGTFISDYSIA[Nle]DKIHQQDFVK([γGlu-γGlu-γGlu-X1])WLLAQKP-NH2) | 147 |
| CCCC[C@H](NC(=O)[C@H](C)NC(=O)[C@@H](NC(=O)[C@H](CO)NC(=O)[C@H](Cc1ccc(O)cc1)NC(=O)[C@H](CC(=O)O)NC(=O)[C@H](CO)NC(=O)[C@@H](NC(=O)[C@H](Cc1ccccc1)NC(=O)[C@@H](NC(=O)CNC(=O)[C@H](CCC(=O)O)NC(=O)[C@H](C)NC(=O)[C@@H](Cc1ccc(O)cc1)NC(C)=O)[C@@H](C)O)[C@@H](C)CC)[C@@H](C)CC)C(=O)N[C@@H](CC(=O)O)C(=O)N[C@@H](CCCCN)C(=O)N[C@H](C(=O)N[C@@H](CCCNC(=N)N)C(=O)N[C@@H](CCC(N)=O)C(=O)N[C@@H](CCC(N)=O)C(=O)N[C@@H](CC(=O)O)C(=O)N[C@@H](Cc1ccccc1)C(=O)N[C@H](C(=O)N[C@@H](CCCCNC(=O)CC[C@H](NC(=O)CC[C@H](NC(=O)CC[C@H](NC(=O)C1CCC(CNC(=O)CCCCCCCCCCCCCCCCCCC(=O)O)CC1)C(=O)O)C(=O)O)C(=O)O)C(=O)N[C@@H](Cc1c[nH]c2ccccc12)C(=O)N[C@@H](CC(C)C)C(=O)N[C@@H](CC(C)C)C(=O)N[C@@H](C)C(=O)N[C@@H](CCC(N)=O)C(=O)N[C@@H](CCCCN)C(=O)N1CCC[C@H]1C(N)=O)C(C)C)[C@@H](C)CC (stereo partly drawn) [Compound 28, N{1}-acetyl,N{Epsilon-24}-[(4S)-4-carboxy-4-[[(4S)-4-carboxy-4-[[(4S)-4-carboxy-4-[[4-[(19-carboxynonadecanoylamino)methyl]cyclohexanecarbonyl]amino]butanoyl]-amino]butanoyl]amino]butanoyl]-[D-Tyr1,Nle14,Arg18,Lys24,Pro31]-hGIP(1-31) amide] (Ac-[dY]AEGTFISDYSIA[Nle]DKIRQQDFVK([γGlu-γGlu-γGlu-X1])WLLAQKP-NH2) | 104 |
| CCCC[C@H](NC(=O)[C@H](C)NC(=O)[C@@H](NC(=O)[C@H](CO)NC(=O)[C@H](Cc1ccc(O)cc1)NC(=O)[C@H](CC(=O)O)NC(=O)[C@H](CO)NC(=O)[C@@H](NC(=O)[C@H](Cc1ccccc1)NC(=O)[C@@H](NC(=O)CNC(=O)[C@H](CCC(=O)O)NC(=O)[C@H](C)NC(=O)[C@@H](Cc1ccc(O)cc1)NC(C)=O)[C@@H](C)O)[C@@H](C)CC)[C@@H](C)CC)C(=O)N[C@@H](CC(=O)O)C(=O)N[C@@H](CCCCN)C(=O)N[C@H](C(=O)N[C@@H](CCCNC(=N)N)C(=O)N[C@@H](CCC(N)=O)C(=O)N[C@@H](CCC(N)=O)C(=O)N[C@@H](CC(=O)O)C(=O)N[C@@H](Cc1ccccc1)C(=O)N[C@H](C(=O)N[C@@H](CCCCNC(=O)CC[C@H](NC(=O)CC[C@H](NC(=O)CC[C@H](NC(=O)C1CCC(CNC(=O)CCCCCCCCCCCCCCCCCCC(=O)O)CC1)C(=O)O)C(=O)O)C(=O)O)C(=O)N[C@@H](Cc1c[nH]c2ccccc12)C(=O)N[C@@H](CC(C)C)C(=O)N[C@@H](CC(C)C)C(=O)N[C@@H](C)C(=O)N[C@@H](CCC(N)=O)C(=O)N[C@@H](CCCCN)C(=O)NCC(=O)O)C(C)C)[C@@H](C)CC (stereo partly drawn) [Compound 8, N{1}-acetyl,N{Epsilon-24}-[(4S)-4-carboxy-4-[[(4S)-4-carboxy-4-[[(4S)-4-carboxy-4-[[4-[(19-carboxynonadecanoylamino)methyl]cyclohexanecarbonyl]amino]-butanoyl]amino]butanoyl]amino]butanoyl]-[D-Tyr1,Nle14,Arg18,Lys24]-hGIP(1-31)] | 106 |
| CCCC[C@H](NC(=O)[C@H](C)NC(=O)[C@@H](NC(=O)[C@H](CO)NC(=O)[C@H](Cc1ccc(O)cc1)NC(=O)[C@H](CC(=O)O)NC(=O)[C@H](CO)NC(=O)[C@@H](NC(=O)[C@H](Cc1ccccc1)NC(=O)[C@@H](NC(=O)CNC(=O)[C@H](CCC(=O)O)NC(=O)C(C)(C)NC(=O)[C@@H](Cc1ccc(O)cc1)NC(C)=O)[C@@H](C)O)[C@@H](C)CC)[C@@H](C)CC)C(=O)N[C@@H](CC(=O)O)C(=O)N[C@@H](CCCCN)C(=O)N[C@H](C(=O)N[C@@H](Cc1c[nH]cn1)C(=O)N[C@@H](CCC(N)=O)C(=O)N[C@@H](CCC(N)=O)C(=O)N[C@@H](CC(=O)O)C(=O)N[C@@H](Cc1ccccc1)C(=O)N[C@H](C(=O)N[C@@H](CCCCNC(=O)CC[C@H](NC(=O)CC[C@H](NC(=O)CC[C@H](NC(=O)C1CCC(CNC(=O)CCCCCCCCCCCCCCCCCCC(=O)O)CC1)C(=O)O)C(=O)O)C(=O)O)C(=O)N[C@@H](Cc1c[nH]c2ccccc12)C(=O)N[C@@H](CC(C)C)C(=O)N[C@@H](CC(C)C)C(=O)N[C@@H](C)C(=O)N[C@@H](CCC(N)=O)C(=O)N[C@@H](CCCCN)C(=O)N1CCC[C@H]1C(N)=O)C(C)C)[C@@H](C)CC (stereo partly drawn) [Compound 32, N{1}-acetyl,N{Epsilon-24}-[(4S)-4-carboxy-4-[[(4S)-4-carboxy-4-[[(4S)-4-carboxy-4-[[4-[(19-carboxynonadecanoylamino)methyl]cyclohexanecarbonyl]amino]butanoyl]-amino]butanoyl]amino]butanoyl]-[D-Tyr1,Aib2, Nle14,Lys24,Pro31]-hGIP(1-31) amide] (Ac-[dY][Aib]EGTFISDYSIA[Nle]DKIHQQDFVK([γGlu-γGlu-γGlu-X1])WLLAQKP-NH2) | 121 |
| CCCC[C@H](NC(=O)[C@H](C)NC(=O)[C@@H](NC(=O)[C@H](CO)NC(=O)[C@H](Cc1ccc(O)cc1)NC(=O)[C@H](CC(=O)O)NC(=O)[C@H](CO)NC(=O)[C@@H](NC(=O)[C@H](Cc1ccccc1)NC(=O)[C@@H](NC(=O)CNC(=O)[C@H](CCC(=O)O)NC(=O)C(C)(C)NC(=O)[C@@H](N)Cc1ccc(O)cc1)[C@@H](C)O)[C@@H](C)CC)[C@@H](C)CC)C(=O)N[C@@H](CC(=O)O)C(=O)N[C@@H](CCCCN)C(=O)N[C@H](C(=O)N[C@@H](CCCNC(=N)N)C(=O)N[C@@H](CCC(N)=O)C(=O)N[C@@H](CCC(N)=O)C(=O)N[C@@H](CC(=O)O)C(=O)N[C@@H](Cc1ccccc1)C(=O)N[C@H](C(=O)N[C@@H](CCCCNC(=O)CC[C@H](NC(=O)CC[C@H](NC(=O)CC[C@H](NC(=O)C1CCC(CNC(=O)CCCCCCCCCCCCCCCCCCC(=O)O)CC1)C(=O)O)C(=O)O)C(=O)O)C(=O)N[C@@H](Cc1c[nH]c2ccccc12)C(=O)N[C@@H](CC(C)C)C(=O)N[C@@H](CC(C)C)C(=O)N[C@@H](C)C(=O)N[C@@H](CCC(N)=O)C(=O)N[C@@H](CCCCN)C(=O)N1CCC[C@H]1C(N)=O)C(C)C)[C@@H](C)CC (stereo partly drawn) [Compound 26, N{Epsilon-24}-[(4S)-4-carboxy-4-[[(4S)-4-carboxy-4-[[(4S)-4-carboxy-4-[[4-[(19-carboxynonadecanoylamino)methyl]cyclohexanecarbonyl]amino]butanoyl]amino]-butanoyl]amino]butanoyl]-[Aib2,Nle14,Arg18,Lys24,Pro31]-hGIP(1-31) amide] | 109 |
